The values that follow come from patent publication US20210393645A1, “TREATMENT FOR PROGRESSIVE MULTIPLE SCLEROSIS” (UTI LIMITED PARTNERSHIP, priority 2016, published 2021).

For data set [1] the following is noted: 1 h after the last of 16 daily clomipramine injections, 25 mg/kg IP.
Experimental: One h after the last administration of clomipramine animals were anesthetized with ketamine/xylazine, blood was taken by an intracardiac puncture for serum, and animals were then subjected to PBS-perfusion. […] Cervical and lumbar cords were snap frozen.
For preparation of samples, 100 pl of ice cold methanol were added to 100 pl of serum in each sample after addition of the internal standard maprotiline. The tubes were vortexed and left on ice for 10 min followed by centrifugation at 10,000×g for 4 min. An equal amount of distilled water was added to each supernatant. Spinal cord samples were each homogenized in 10 volumes of ice-cold 80% methanol. Twenty pl of o-phosphoric acid were added to all samples after addition of internal standard (maprotiline). The tubes were vortexed and left on ice for 10 min, followed by centrifugation at 10,000×g for 4 min and an equal volume of distilled water was added to each supernatant. […]
Calibration curves consisting of varying amounts of authentic clomipramine and N-desmethylclomipramine and the same fixed amount of maprotiline as added to the samples being analyzed were run in parallel through the procedure described above and the ratios of clomipramine and N-desmethylclomipramine to maprotiline were used to determine the amount of drug and metabolite in the serum and spinal cord samples.
Data set [2] concerns human neurons. The data set can be described thus: Iron (FeSO4) mediated neurotoxicity screening, MAP-2 positive neurons counted. It counts as cell-based. Conditions: for viability at 10 µM: Homo sapiens, Neuron, drug 10 μM 1 h before FeSO4 25 or 50 μM, MAP-2 neurons after 24 h, read-out: Drug % control (mean): number of neurons normalized to untreated control. In a few lines: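 Fetal human neurons (15-20 wk), plated with cytosine arabinoside, were pre-incubated 1 h with compounds (10 mM DMSO stocks) before FeSO4 at 25-50 μM final. Cells fixed a day later; MAP-2 immunostaining plus Hoechst nuclei imaged automatically, sites per well averaged; quadruplicates.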

A further data set relates to T-cells. The data set can be described thus: Proliferation of T-lymphocytes (3H-thymidine) in anti-CD3/anti-CD28 activated splenocytes. It counts as cell-based, mouse. As to the method:
A previously published protocol was used for isolating and activating T-cells (Keough et al., Nature Comm 7:11312, 2016). Spleens from female C57B16 mice were harvested and after mechanical dissociation the cell suspension was passed through a 70 μm cell strainer and separated by Ficoll gradient (1800 RPM, 30 min). Splenocytes were plated (2.5×10^5 cells in 100 μl/well) in anti-CD3 antibody coated 96-well plates (1,000 ng m1^−1 plate-bound anti-CD3 and 1,000 ng m1^−1 anti-CD28 suspended in media) to activate T-cells. Directly before plating, wells were treated with respective drugs in a final concentration of 10 μM. Cells were cultured in RPMI 1640 medium, supplemented with 10% FBS, 1 μM sodium pyruvate, 2 mM L-alanyl-L-glutamine, 1% penicillin/streptomycin, 1% HEPES and 0.05 mM 2-mercaptoethanol (all supplements were from Invitrogen). After 48 h, ^3H-thymidine was added in a concentration of 1 μCi per well, and cells were harvested after 24 h on filter mats. Mats were then evaluated for radioactivity (counts per minute) using a liquid scintillation counter.

Another data set relates to microglia. Conditions: shown previously; cited from earlier work.
Data set [3] relates to human neurons. The data set can be described thus: Live cell imaging of propidium iodide positive neurons challenged with FeSO4. It counts as cell-based. Conditions: FeSO4 50 μM, pre-treatment 1 h. As to the method: Neurons were prepared as described above. Directly after the addition of FeSO4 to healthy neurons, the live cell-permeant Hoechst 33342 (1:2 diluted in AIM-V medium, nuclear blue; ThermoFisher Scientific, Grand Island, NY, USA) and the live cell-impermeable propinium iodide (PI, 1:20 diluted in AIM-V medium) were added in a volume of 20 μI (Sigma-Aldrich). In compromised cells, PI could now diffuse across the plasma membrane. Live cell imaging was performed using the automated ImageXpress® imaging system under controlled environmental conditions (37° C. and 5% CO2). Images were taken from 9 sites per well at baseline and then every 30 min for 12h. After export with MetaXpress®, videos were edited with ImageJ (NIH) in a uniform manner. Nuclei were pseudo colored in cyan, PI-positive cells in red.
Live cell imaging over 12 h supported the neuroprotective effects of drugs. We selected indapamide and desipramine for live imaging studies.

For data set [4], the system named is human neurons. The data set can be described thus: Mitochondrial damage to neurons induced by rotenone. Conditions: rotenone 10 μM, drug 10 μM. Type of data set: cell-based. As to the method:
Human neurons were isolated from brain tissues of therapeutically aborted 15-20 week old fetuses, in accordance with ethics approval of the University of Calgary ethics committee, after written informed consent of the pregnant donors. Neurons were isolated as previously described (Vecil et al., 2000) brain specimens were washed in phosphate buffered saline (PBS) to remove blood, followed by removal of meninges. […] Thereafter, the digestion was stopped by addition of 4 ml fetal calf serum (FCS). The solution was filtered through a 132 μm filter and centrifuged (three times, 1,200 rpm, 10 min). Cells were cultured in feeding medium of minimal essential medium (MEM) supplemented with 10% fetal bovine serum (FBS), 1 μM sodium pyruvate, 10 μM glutamine, 1× non-essential amino acids, 0.1% dextrose and 1% penicillin/streptomycin (all culture supplements from Invitrogen, Burlington, Canada). […] For experiments, the neuron-enriched cultures were retrypsinized and cells were plated in poly-L-ornithine pre-coated 96-well plates at a density of 100,000 cells/well in 100 μl of the complete medium supplemented with cytosine arabinoside. […] All conditions were performed in quadruplicates. A day later cells were fixed using 4% paraformaldehyde (PFA) and stored in PBS in 4° C.
The iron stock solution was prepared using 27.8 mg iron(II) sulfate heptahydrate (FeSO4) (Sigma-Aldrich, Oakville, Canada), 10 μl of 17.8M sulfuric acid and 10 ml deionized distilled water. After filtering with a 0.2 μm filter, FeSO4 was added to cells in a final concentration of 25-50 μM in a volume of 50 μl medium to the cells. Rotenone was dissolved in dimethyl sulfoxide (DMSO) and used in a final concentration of 10 μM.

Data set [5] can be described thus: Hydroxyl radical antioxidant capacity (HORAC) assay. Type of data set: biochemical. Conditions: vs 12.5 μM gallic acid (=1), 60 min. As to the method:
In this assay, hydroxyl radicals generated by a Co(II)-mediated Fenton-like reaction oxidize fluorescein causing loss of fluorescence (Ou et al., J Argricultural Food Chemistry 50:2772-2777, 2002). The presence of an anti-oxidant reduces the loss of fluorescence and this can be monitored every 5 min over a period of 60 min with a Spectra Max Gemini XS plate reader (Molecular Devices, Sunnyvale, Calif., USA) and the software SoftMax Pro version 5. For monitoring fluorescence, we used an excitation wavelength of λ=485 nm and an emission wavelength of λ=520 nm.
The biochemical cell free hydroxyl radical antioxidant capacity (HORAC) assay investigates the prevention of hydroxyl radical mediated oxidation of to fluorescein in comparison to the strong anti-oxidant gallic acid. The generation of hydroxyl radicals by a cobalt-driven Fenton-like reaction oxidizes fluorescein with progressive loss of fluorescence. The presence of an anti-oxidant reduces the loss of fluorescence over time.
We compared the area under the curve of test compounds to that elicited by gallic acid to obtain the gallic acid equivalent (GAE).

In the next data set the test system is mice. The data set can be described thus: Lysolecithin demyelination of the spinal cord in aging 8-10 months old mice. It counts as in vivo, mouse. Conditions: 20 mg/kg IP immediately after lysolecithin and once per day for 2 days; day 3. The source says: Active demyelinating lesions can be found in MS specimens of all ages sampled, including late in life. Indeed, age has been identified to be a factor in the dreaded conversion from relapsing-remitting into secondary progressive MS. Contributing causes for aging-associated worsening in MS that drives progression include the steady loss of axons with longevity of disease, or the deficient repair of myelin in older compared to younger patients. We tested the hypothesis that the same demyelinating injury is more devastating to axons and myelin as the individual ages.
We thus treated aging 8-10 months old mice with intraperitoneal indapamide (20 mg/kg) immediately after lysolecithin demyelination, and once per day at 20 mg/kg for the next 2 days. Spinal cord tissues were taken for histology.

“Also recorded” adds a separate entry of the source. Structures can show the parent of a compound that is named as a salt.

As for `CNCCCN1c2ccccc2CCc2ccc(Cl)cc21` [desmethylclomipramine], in data set [1], the mean serum concentration was determined as 101 nM and the “mean spinal cord level” value is 1.5 µM.

As for `CN(C)CCC=C1c2ccccc2COc2ccccc21` [DOXEPIN HYDROCHLORIDE], in the data set with human neurons [2], the viability at 10 µM was 76.9%. Besides, the inhibition at 10 µM with T-cells (Mus musculus, T-cell, 72 h, drug 10 μM, vs activated splenocytes, read-out: mean reduction of 3H-thymidine incorporation (T-cell proliferation)) amounted to 85.3%. Besides, the “microglial activation reduced to” value with microglia is on record as 46%.

For `CC1Cc2ccccc2N1NC(=O)c1ccc(Cl)c(S(N)(=O)=O)c1` (centres unmarked) [INDAPAMIDE], in the data set with human neurons [3], the “number of PI-positive neurons in response to FeSO4 over 12 h” value is “significantly attenuated”. Moreover, the “neurotoxicity by rotenone (mitochondrial damage)” value in the data set with human neurons [4] was “reduced neurotoxicity; also recorded: active against damage to the mitochondrial respiratory chain”. Besides, in data set [5], the “mean HORAC-GAE (gallic acid equivalents)” value is given as 4.1. Besides, in the data set with human neurons [2], the viability at 10 µM worked out at 126%. The “protection from FeSO4-mediated neurotoxicity (in words)” value in the data set on human neurons [2] (drug 10 μM, human neurons) was “strong neuroprotective effects against iron toxicity”. In addition, the “effect on T-lymphocyte proliferation (in words)” value in the data set on T-cells is given as “no effect on T-lymphocyte proliferation”. For the same molecule, in the data set on mice, the axonal loss result is on record as “less axonal loss”, the lesional malondialdehyde level entry is “reduced lesional malondialdehyde” and the volume of demyelination entry is “smaller volume of demyelination”.
